Measurements reported in article PMC6567057, “Pharmacokinetic, metabolic stability, plasma protein binding and CYP450s inhibition/induction assessment studies of N-(2-pyridylmethyl)-2-hydroxiymethyl-1-pyrrolidinyl-4-(3-chloro-4-methoxy-benzylamino)-5-pyrimidine-carboxamide as potential type 5 phosphodiesterase inhibitors” (Animal Cells and Systems, 2019).
Where two headings read alike, the source gives them in different places.

Assays:
[1] = Stability in plasma, 6 h incubation at 37°C (human); format: in vitro ADME
Method: (§1) The phosphate buffer (100 mM) and sodium hydroxide solution (1.0 M) were prepared in deionized water. […] PPB was determined by equilibrium dialysis method. An aliquot (150 μL) of NHPPC spiked plasma and phosphate buffer (pH 7.4) was added into the donor side and the receiver side of each designated well. The plate was covered with adhesive sealing film to prevent evaporation and placed in a water-bath shaker kept at 37°C for 6 h with a rate of 50 rpm. […] At the end of 6 h, aliquots were taken from each side of each well (n = 3) and kept in a −20°C freezer prior to analysis. The stability, device recovery and PPB were calculated using the following equations: Remaining at 6 h (%)=C6h/C0h×100%, Device recovery (%)=CDonor+CReceiver/C6h×100%, PPB (%)=CDonor−CReceiver/CDonor×100%.

[2] = Plasma protein binding by equilibrium dialysis (human); format: in vitro ADME
Method: as §1

human plasma proteins = experiment: as above; format: in vitro ADME; conditions: human plasma, mean of 0.2 and 1 µM
Method: as §1

[3] = In vitro metabolic stability in rat liver microsomes; format: in vitro ADME; conditions: for remaining at 1 h, 1 µM: liver microsomes, pH 7.4, rat liver microsomes, 60 min, read-out: percent remaining
Method: (§2) The phosphate buffer (pH 7.4, 100 mM) and (300 mM) were prepared in deionized water. NADP and IA were dissolved in phosphate buffer and MgCl2 solution and then added 20 μL IDH (18 units/mg protein) and mixed. NHPPC (1 mM) and positive control drug were prepared by dilution using DMSO and then the NHPPC and positive control drug working solution (50 μM) were obtained by dilution using methanol: H2O (1:1, v/v) mixture. Pooled human, rat and dog liver microsomes were added to phosphate buffer pH7.4 to a concentration 20 mg/mL. NHPPC was incubated with liver microsomes. The incubation solution of the final reaction conditions contained 50 mM potassium phosphate buffer (pH 7.4), 0.5 mg protein/mL microsomes, 3 mM MgCl2, 2 mM NADPH and 1 μM NHPPC or positive control drug in a final volume of 100 μL. In sample and positive control groups, NADPH was added into the incubation solutions. In the negative control group, water (the replacement of NADPH) was added into the incubation solutions. Samples were incubated aerobically in a shaking water bath at 37°C and the reaction was terminated by adding 300 μL of ice cold acetonitrile (contain 100 ng/mL IS) at different interval 0, 5, 10, 20, 30 and 60 min. While positive control and negative control were incubated aerobically in a shaking water bath at 37°C for 0 and 60 min, respectively. NHPPC and control concentrations were determined by LC-MS/MS at each time point (n = 3). Calculation of t1/2 and CLint was performed by using following equations, where K is the elimination rate constant (min^−1) and QH is hepatic blood flow (mL/min/kg). t1/2=0.693/KCLint,in vitro=VD×KVD=Volume of reaction mixture(mL)/mg of protein per reation.
(§3) Hepatic intrinsic clearance was estimated by using the scaling factors and calculated by using the following equation (Lave et al. [1997]). CLint,in vivo=CLint×mg microsomal protein per liver×g liver per kg body weight, Cint,H=CLint,in vivo×QH/CLint,in vivo+QH,EH=CLint,H/QH.

[4] = In vitro metabolic stability in dog liver microsomes; format: in vitro ADME; conditions: for remaining at 1 h, 1 µM: liver microsomes, pH 7.4, dog liver microsomes, 60 min, read-out: percent remaining
Method: as §2, §3

[5] = In vitro metabolic stability in human liver microsomes; format: in vitro ADME; conditions: for remaining at 1 h, 1 µM: liver microsomes, pH 7.4, human liver microsomes, 60 min, read-out: percent remaining
Method: as §2, §3

[6] = In vivo pharmacokinetic study in rats; set-up: species or system male Sprague–Dawley rats; conditions: rat; for MRT inf: read-out: MRT0-∞
Method: For the iv experiment, male SD rats (n = 3) were given a single dose of NHPPC (1 mg/kg) over 1 min by dorsal venous arch of foot. Approximately 200 µL blood samples were collected at 5, 15, 30 min and 1, 2, 4, 6, 8 and 24 h post-dose via tail vein into heparinized (coated with 0.1% heparin in saline) tubes. For the oral experiments, the male rats (n = 3) were given a single dose of 2 mg/kg. Then the blood samples were collected at 10, 30 min and 1, 2, 4, 6, 8 and 24 h post-dose. Plasma was obtained after centrifugation at 8000 rpm for 6 min (4°C) within 10 min of blood-drawing and stored at –70°C until they were analyzed.
Data analysis including analyte/IS was acquired using Analyst version 1.6.1 software (AB SCIEX). All pharmacokinetic parameters (for example: K10, AUC0–t, AUC0-∞, Cmax, Tmax, t1/2, CL, Vss, MRT0–∞, etc.) were analyzed based on a non-compartmental model and using Pharsight WinNonlin version 6.3 (St. Louis, USA). The area under the concentration time curve (AUC0–t and AUC0–∞) was calculated by linear trapezoidal rule. The natural logarithms (Ln) of the fraction remaining against incubation times (min) was plotted and the first-order rate constant of turnover is determined by a linear regression model. The final results (for example: the mean, standard deviation, the remaining, device recovery, ke, bioavailability, etc.) were electronically exported into Excel 7.0 (Redmond, USA) for data processing and formatting.

[7] = male, Sprague-Dawley, plasma, IV 1 mg/kg
[8] = male, Sprague-Dawley, plasma, PO 2 mg/kg

remaining at 6 h, 0.2 µM ([1]; 0.2 µM, n = 3, read-out: Mean drug remaining %): 99.8 ± 1.37% | remaining at 6 h, 1 µM ([1]; 1 µM, n = 3, read-out: Mean drug remaining %): 102 ± 1.5% | remaining at 6 h ([1]; mean of 0.2 and 1 µM, read-out: Mean drug remaining %): 101 ± 1.23% | fraction unbound at 6 h, 0.2 µM ([2]; human, plasma, pH 7.4, human plasma, 0.2 µM, equilibrium dialysis 6 h, read-out: Mean PPB % (converted)): 0.007 | fraction unbound at 6 h, 1 µM ([2]; human, plasma, pH 7.4, human plasma, 1 µM, equilibrium dialysis 6 h, read-out: Mean PPB % (converted)): 0.005 | recovery at 6 h, 0.2 μM ([2]; pH 7.4, human plasma, equilibrium dialysis, n = 3, read-out: Mean device recovery %): 101.2 ± 0.02% | Mean PPB % (human plasma proteins): 99.4 ± 0.13% | half-life at 1 µM ([3]; pH 7.4, rat liver microsomes): 0.708 h | microsomal CLint at 1 µM ([3]; pH 7.4, rat liver microsomes, read-out: CLint, ivtro): 23.3 µL/min/mg | k el at 1 µM ([3]; pH 7.4, rat liver microsomes, read-out: Ke (converted)): 0.000272 s⁻¹ | remaining at 1 h, 1 µM ([3]; rat, in the presence of NADPH, 1 μM): 42.8% | remaining at 1 h, 1 µM ([3]; rat, without NADPH regenerating system): 102% | ranking for clearance ([3]; rat, ranking criteria of Houston 1994, Kerns and Di 2008): middle clearance | CLH ([3]; rat, scaled from liver microsomes): 27.5 mL/min/kg | remaining at 1 h, 1 µM ([4]; dog, in the presence of NADPH, 1 μM): 0.8% | remaining at 1 h, 1 µM ([4]; dog, without NADPH regenerating system): 98.4% | CLH ([4]; dog, scaled from liver microsomes): 25.3 mL/min/kg | half-life at 1 µM ([4]; liver microsomes (pooled), pH 7.4, dog liver microsomes): 8.2 min | microsomal CLint at 1 µM ([4]; liver microsomes (pooled), pH 7.4, dog liver microsomes, read-out: CLint, ivtro): 120 µL/min/mg | k el at 1 µM ([4]; pH 7.4, dog liver microsomes, read-out: Ke (converted)): 0.0014 s⁻¹ | remaining at 1 h, 1 µM ([5]; human, in the presence of NADPH, 1 μM): 42% | remaining at 1 h, 1 µM ([5]; human, without NADPH regenerating system): 99.4% | ranking for clearance ([5]; human, ranking criteria of Houston 1994, Kerns and Di 2008): middle clearance | CLH ([5]; human, scaled from liver microsomes): 9.80 mL/min/kg | half-life at 1 µM ([5]; liver microsomes (pooled), pH 7.4, human liver microsomes): 0.77 h | microsomal CLint at 1 µM ([5]; liver microsomes (pooled), pH 7.4, human liver microsomes, read-out: CLint, ivtro): 21.4 µL/min/mg | k el at 1 µM ([5]; liver microsomes (pooled), pH 7.4, human liver microsomes, read-out: Ke (converted)): 0.00025 s⁻¹ | AUC(0-inf) [6, 7]: 866 ± 201 ng·h/mL | AUC(0-t) [6, 7]: 847 ± 195 ng·h/mL | clearance [6, 7]: 19.8 mL/min/kg | half-life [6, 7]: 4.55 ± 0.11 h | MRT inf [6, 7]: 5.5 ± 0.36 h | Vd ([6]; male, Sprague-Dawley, plasma, IV 1 mg/kg, read-out: Vss): 6.5 ± 1 L/kg | AUC(0-inf) [6, 8]: 593 ± 137 ng·h/mL | AUC(0-t) [6, 8]: 583 ± 135 ng·h/mL | Cmax [6, 8]: 52.6 ± 12.9 ng/mL | Tmax [6, 8]: 6 h | half-life [6, 8]: 4.02 ± 0.39 h | MRT inf [6, 8]: 7.8 ± 0.79 h | K10 ([6]; IV 1 mg/kg): 0.15 ± 0.00 h⁻¹ | K10 ([6]; PO 2 mg/kg): 0.17 ± 0.02 h⁻¹
Compound: COc1ccc(CNc2nc(N3CCC[C@H]3CO)ncc2C(=O)NCc2ccccn2)cc1Cl [NHPPC, N-(2-pyridylmethyl)-2-hydroxiymethyl-1-pyrrolidinyl-4-(3-chloro-4-methoxy-benzylamino)-5-pyrimidine-carboxamide]
